Laboratory results reported in patent US12448358B2, “Inhibitors of protein arginine deiminase 1 and methods of preparation and use thereof” (University of Massachusetts, priority 2019, dated 2025).
pKi: −log10 of the molar value. Like-named read-outs stand apart in the source and are kept apart here.

Legend:
Type in all cases: biochemical
[1] = target: T1, PAD2 (Homo sapiens, UniProt Q9Y2J8); experiment: Inactivation kinetics of PAD2 (COLDER citrulline assay); conditions: for Fold PAD selectivity: bracketed value under kinact/KI; for kinact/KI: marks: * nonlinear fit of kobs versus [I], ‡ linear fit, † single kobs
T1 construct: made in house
T1 sequence (Q9Y2J8 whole entry): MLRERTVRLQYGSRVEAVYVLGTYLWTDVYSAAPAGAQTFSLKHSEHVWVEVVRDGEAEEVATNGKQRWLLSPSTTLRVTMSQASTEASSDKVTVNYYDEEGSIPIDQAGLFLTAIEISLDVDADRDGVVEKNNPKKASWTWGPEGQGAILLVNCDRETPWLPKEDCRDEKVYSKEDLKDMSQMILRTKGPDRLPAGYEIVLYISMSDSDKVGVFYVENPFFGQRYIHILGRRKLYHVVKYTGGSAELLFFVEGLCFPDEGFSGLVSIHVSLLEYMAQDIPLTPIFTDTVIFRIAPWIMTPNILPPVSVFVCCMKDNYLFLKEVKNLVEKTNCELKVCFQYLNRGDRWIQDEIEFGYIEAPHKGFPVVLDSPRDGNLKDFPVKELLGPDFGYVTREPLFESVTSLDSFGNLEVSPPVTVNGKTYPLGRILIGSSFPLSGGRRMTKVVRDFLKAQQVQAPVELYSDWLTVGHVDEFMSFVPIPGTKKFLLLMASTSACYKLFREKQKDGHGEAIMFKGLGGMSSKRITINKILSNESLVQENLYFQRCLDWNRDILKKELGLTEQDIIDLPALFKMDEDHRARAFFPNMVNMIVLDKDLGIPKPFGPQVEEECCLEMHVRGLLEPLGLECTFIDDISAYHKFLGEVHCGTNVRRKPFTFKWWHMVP
Description: (§1) Inactivation kinetics. […] After 15 min, reactions were quenched with liquid nitrogen and the production of citrulline was quantified using the COLDER assay. (Kearney, et al. Biochemistry 2005, 44, 10570-10582; Knipp, et al. Anal. Biochem. 2000, 286, 257-264.) The time-dependence of PAD inhibition was fit to the following equation 1, […] (1), using Grafit, version 5.0.11, where v is velocity, ν0 is initial velocity, k (or kobs is the pseudo-first-order rate constant of inactivation, and t is time. Upon reaching saturation, the concentration dependence of kobs was fit to equation 2, kobs=kinact[I]/(KI+[I]), (2), using Grafit, version 5.0.11, where kinact is the maximal rate of inactivation, KI is the concentration of inhibitor that affords half-maximal inactivation, and [I] is the concentration of inhibitor. When kobs with [I] varied linearly, kinact/KI was determined from the slope of the line. All the experiments were performed at least in duplicate.

[2] = target: T2, PAD3 (Homo sapiens, UniProt Q9ULW8); experiment: Inactivation kinetics of PAD3 (COLDER citrulline assay); conditions: for Fold PAD selectivity: bracketed value under kinact/KI; for kinact/KI: marks: * nonlinear fit of kobs versus [I], ‡ linear fit, † single kobs
T2 construct: made in house
T2 sequence (Q9ULW8 1-664): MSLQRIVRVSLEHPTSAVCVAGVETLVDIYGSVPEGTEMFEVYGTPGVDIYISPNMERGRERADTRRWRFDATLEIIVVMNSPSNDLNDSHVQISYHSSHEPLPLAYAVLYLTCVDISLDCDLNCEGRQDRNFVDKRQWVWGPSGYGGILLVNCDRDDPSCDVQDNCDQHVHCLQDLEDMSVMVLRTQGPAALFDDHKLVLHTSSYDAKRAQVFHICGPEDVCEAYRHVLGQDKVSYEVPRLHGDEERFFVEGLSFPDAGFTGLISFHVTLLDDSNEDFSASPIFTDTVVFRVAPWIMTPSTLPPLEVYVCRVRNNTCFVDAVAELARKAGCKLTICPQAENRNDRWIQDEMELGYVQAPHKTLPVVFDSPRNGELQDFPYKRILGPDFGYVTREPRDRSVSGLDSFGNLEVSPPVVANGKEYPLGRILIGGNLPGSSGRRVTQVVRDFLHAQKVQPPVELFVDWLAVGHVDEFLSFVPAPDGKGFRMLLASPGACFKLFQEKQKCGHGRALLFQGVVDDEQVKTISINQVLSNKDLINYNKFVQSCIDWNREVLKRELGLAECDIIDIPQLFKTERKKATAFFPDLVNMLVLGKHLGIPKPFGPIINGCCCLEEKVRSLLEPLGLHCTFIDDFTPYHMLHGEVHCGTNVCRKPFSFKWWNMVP
Description: as §1

[3] = target: T3, PAD1 (Homo sapiens, UniProt Q9ULC6); experiment: Inactivation kinetics of PAD1 (COLDER citrulline assay); conditions: for kinact / pKi / kinact/KI: PAD1; for pKi: concentration of inhibitor that affords half-maximal inactivation; for kinact/KI: marks: * nonlinear fit of kobs versus [I], ‡ linear fit, † single kobs; for Fold PAD selectivity: PAD1 over the other PADs, bracketed value under kinact/KI
T3 construct: made in house
T3 sequence (Q9ULC6 1-663): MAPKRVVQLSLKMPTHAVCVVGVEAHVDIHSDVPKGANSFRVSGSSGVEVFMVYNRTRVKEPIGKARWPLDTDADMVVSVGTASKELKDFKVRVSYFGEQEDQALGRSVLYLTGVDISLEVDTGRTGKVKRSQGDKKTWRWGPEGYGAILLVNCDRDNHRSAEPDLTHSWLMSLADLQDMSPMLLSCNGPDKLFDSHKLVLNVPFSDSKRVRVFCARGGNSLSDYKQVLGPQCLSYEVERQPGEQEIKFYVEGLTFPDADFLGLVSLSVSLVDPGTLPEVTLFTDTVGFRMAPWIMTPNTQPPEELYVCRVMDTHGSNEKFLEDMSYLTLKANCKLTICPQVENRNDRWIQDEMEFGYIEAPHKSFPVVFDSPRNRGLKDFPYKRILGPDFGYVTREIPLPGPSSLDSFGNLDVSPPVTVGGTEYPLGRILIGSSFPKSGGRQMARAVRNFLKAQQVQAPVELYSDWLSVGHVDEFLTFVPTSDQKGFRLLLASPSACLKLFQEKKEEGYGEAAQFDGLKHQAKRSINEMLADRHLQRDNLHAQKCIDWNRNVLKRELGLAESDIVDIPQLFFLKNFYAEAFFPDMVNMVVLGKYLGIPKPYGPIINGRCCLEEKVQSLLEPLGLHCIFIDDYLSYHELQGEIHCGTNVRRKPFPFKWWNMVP
Description: as §1

[4] = target: T4, PAD4 (Homo sapiens, UniProt Q9UM07); experiment: Inactivation kinetics of PAD4 (COLDER citrulline assay); conditions: for Fold PAD selectivity: bracketed value under kinact/KI; for kinact/KI: marks: * nonlinear fit of kobs versus [I], ‡ linear fit, † single kobs
T4 construct: made in house
T4 sequence (Q9UM07 whole entry): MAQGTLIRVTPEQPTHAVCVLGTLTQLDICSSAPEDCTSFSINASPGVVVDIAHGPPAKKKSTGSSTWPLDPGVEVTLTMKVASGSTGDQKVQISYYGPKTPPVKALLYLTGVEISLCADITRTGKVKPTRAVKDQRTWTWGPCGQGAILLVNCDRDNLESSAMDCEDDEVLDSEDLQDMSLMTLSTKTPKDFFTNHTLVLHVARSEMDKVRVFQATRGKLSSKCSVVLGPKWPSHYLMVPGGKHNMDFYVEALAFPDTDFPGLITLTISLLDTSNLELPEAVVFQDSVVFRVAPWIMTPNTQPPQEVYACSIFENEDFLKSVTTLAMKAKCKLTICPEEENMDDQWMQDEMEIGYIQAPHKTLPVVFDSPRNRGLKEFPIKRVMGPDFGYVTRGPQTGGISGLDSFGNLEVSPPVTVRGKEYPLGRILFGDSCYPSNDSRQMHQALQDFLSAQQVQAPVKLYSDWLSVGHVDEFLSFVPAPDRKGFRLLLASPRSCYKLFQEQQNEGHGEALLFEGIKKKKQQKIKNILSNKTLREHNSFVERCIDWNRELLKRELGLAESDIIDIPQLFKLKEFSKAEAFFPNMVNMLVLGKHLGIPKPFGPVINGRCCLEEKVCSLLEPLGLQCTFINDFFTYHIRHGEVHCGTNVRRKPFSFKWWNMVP
Description: as §1

[5] = read-out: kinact/KI (converted)

Fold PAD selectivity [1]	kinact/KI [1]	Fold PAD selectivity [2]	kinact/KI [2]	kinact [3] [s⁻¹]	pKi [3]	kinact/KI [3]	Fold PAD selectivity [4]	kinact/KI [4]	kinact/KI [1, 5] [M⁻¹ s⁻¹]	kinact/KI [2, 5] [M⁻¹ s⁻¹]	kinact/KI [3, 5] [M⁻¹ s⁻¹]	kinact ([3]; read-out: kinact (converted)) [s⁻¹]	Fold PAD selectivity [3] [fold]	kinact/KI [4, 5] [M⁻¹ s⁻¹]	SMILES
[1] fold	130 ± 30^† M^−1min^−1	[2] fold	310 ± 80^† M^−1min^−1	0.00517	4.16	4480 ± 200* M^−1min^−1	[2] fold	220 ± 30^† M^−1min^−1	–	–	–	–	–	–	C#Cc1c(I)cc(C(=O)N[C@@H](CCCNC(=N)CF)c2nc3ccccc3[nH]2)c(O)c1I [Compound 21]
[1] fold	–	[2] fold	–	–	4.52	–	[1] fold	–	5	11.7	221	0.00667	44	5	N=C(CF)NCCC[C@H](NC(=O)c1cc(I)c(F)c(I)c1O)c1nc2ccccc2[nH]1 [Compound 19]
[1] fold	–	[1] fold	–	–	4.90	–	[2] fold	–	2.33	3.33	173	0.00217	74	4.5	N=C(CF)NCCC[C@H](NC(=O)c1cc(I)cc(I)c1O)c1nc2ccccc2[nH]1 [Compound 1]
